Data from patent US20260174739A1 (priority 2022, published 2026).

Columns and labels:
[1] = target: Sigma2 receptor (Homo sapiens, UniProt Q5BJF2); assay: Sigma receptor affinity assay ([3H]-DTG binding), Sigma2R; conditions: HEK293 membranes stably expressing Sigma2 receptor, [3H]-DTG 5 nM; read-out: Sigma2R (Ki)
Procedure: (§1) Cell membrane: the membrane protein adopted in the experiment was extracted from an HEK293 cell strain stably expressing Sigmal receptor and an HEK293 cell strain stably expressing Sigma2 receptor, which were constructed by WuXi AppTec.
(§2) • 1) Detection buffer: 50 mM Tris-HCl, pH=7.4, stored at 4° C. • 2) Sigma 1R assay plate washing buffer: 50 mM Tris-HCl, pH=7.4, stored at 4° C.; sigma2R assay plate washing buffer: 50 mM Tris-HCl, 100 mM NaCl, pH=7.4, stored at 4° C. • 3) The compounds were diluted to each working concentration: 4-fold serial gradient dilutions for 8 concentrations.
The affinity inhibition constant Ki was calculated using the Cheng Prusoff equation: […]

[2] = target: T1, NMDA receptor (N-methyl-D-aspartate receptor, NR1/2A) (Homo sapiens, UniProt Q05586+Q12879); assay: NMDA receptor antagonistic activity assay (whole cell manual patch clamp, channel currents); type: cell-based; conditions: HEK293 cells transiently expressing hNR1/2A; current evoked by 100 μM glutamic acid + 100 μM glycine at -70 mV; read-out: NMDAR antagonistic activity (IC50)
T1 construct: T2A self-cleaving peptide (linker between NR1 and 2A) (C)
T1 sequence (Q12879 23-1464, other chains not shown): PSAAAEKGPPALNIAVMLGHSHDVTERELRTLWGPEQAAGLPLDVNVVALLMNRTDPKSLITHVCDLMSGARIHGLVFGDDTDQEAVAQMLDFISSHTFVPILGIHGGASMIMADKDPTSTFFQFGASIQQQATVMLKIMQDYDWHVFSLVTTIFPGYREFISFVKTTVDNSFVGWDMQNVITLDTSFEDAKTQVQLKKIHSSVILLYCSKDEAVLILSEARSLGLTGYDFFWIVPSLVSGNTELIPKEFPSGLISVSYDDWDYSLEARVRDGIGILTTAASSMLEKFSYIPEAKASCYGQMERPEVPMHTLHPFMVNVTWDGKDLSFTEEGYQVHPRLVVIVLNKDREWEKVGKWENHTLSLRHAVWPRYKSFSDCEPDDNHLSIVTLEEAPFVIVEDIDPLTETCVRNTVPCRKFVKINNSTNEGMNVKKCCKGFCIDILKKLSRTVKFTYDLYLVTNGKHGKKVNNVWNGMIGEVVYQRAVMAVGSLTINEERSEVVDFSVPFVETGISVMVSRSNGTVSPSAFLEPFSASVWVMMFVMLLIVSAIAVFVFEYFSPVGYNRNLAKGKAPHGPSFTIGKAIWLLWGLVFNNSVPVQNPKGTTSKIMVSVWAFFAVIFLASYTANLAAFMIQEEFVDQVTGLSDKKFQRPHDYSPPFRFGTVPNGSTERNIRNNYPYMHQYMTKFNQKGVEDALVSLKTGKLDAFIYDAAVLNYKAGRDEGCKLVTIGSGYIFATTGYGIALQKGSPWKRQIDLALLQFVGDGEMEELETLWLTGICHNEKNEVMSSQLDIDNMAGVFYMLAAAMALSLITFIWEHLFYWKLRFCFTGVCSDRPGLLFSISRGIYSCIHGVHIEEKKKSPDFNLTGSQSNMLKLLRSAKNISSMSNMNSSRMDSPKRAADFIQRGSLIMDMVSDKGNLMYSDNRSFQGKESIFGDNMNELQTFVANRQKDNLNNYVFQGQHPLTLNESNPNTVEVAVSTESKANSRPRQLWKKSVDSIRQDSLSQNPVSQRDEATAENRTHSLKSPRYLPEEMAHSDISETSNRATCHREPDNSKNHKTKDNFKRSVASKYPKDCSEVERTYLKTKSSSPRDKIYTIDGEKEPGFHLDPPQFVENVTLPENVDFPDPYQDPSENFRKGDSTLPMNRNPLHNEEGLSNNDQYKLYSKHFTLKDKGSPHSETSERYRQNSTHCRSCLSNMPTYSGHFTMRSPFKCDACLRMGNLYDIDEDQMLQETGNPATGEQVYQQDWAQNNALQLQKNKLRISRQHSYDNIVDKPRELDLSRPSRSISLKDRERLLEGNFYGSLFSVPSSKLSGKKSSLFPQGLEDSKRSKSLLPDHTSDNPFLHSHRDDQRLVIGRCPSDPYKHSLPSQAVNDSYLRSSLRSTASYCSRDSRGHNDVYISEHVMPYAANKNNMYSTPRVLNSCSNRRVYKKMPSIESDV
Procedure: The effect of the compounds on NMDA receptor (N-methyl-D-aspartate receptor, NR1/2A) channel currents was tested using the electrophysiological whole cell manual patch clamp method.
The HEK293 cell line was cultured in DMEM medium containing 10% fetal bovine serum at 37° C. with 5% carbon dioxide.
Preparation of compound: on the day of testing, the stock solution of the compound of the present disclosure was diluted with DMSO to an intermediate concentration, which was then further diluted with an extracellular solution (containing 100 μM glutamic acid+100 µM glycine) to obtain the final concentration to be tested. […] Electrophysiological recording
Currents evoked by 100 μM glutamic acid (containing 100 μM glycine) were recorded at room temperature from HEK293 cells transiently expressing NMDA receptor channels using the whole-cell patch clamp technique. Glass microelectrodes were formed by pulling a glass electrode blank (BF150-86-10, Sutter) using a puller. The tip resistance after perfusion of electrode internal solution was about 2-5 MΩ. The glass microelectrodes could be connected to a patch clamp amplifier after being inserted into amplifier probes. […] After whole-cell recording was achieved, the cell was clamped at −70 mV. A gravity-driven rapid administration system was used to apply 100 μM glutamic acid (containing 100 μM glycine) to induce the channel current. After the current stabilized, the 100 μM glutamic acid (containing 100 μM glycine) was administered, and changes in current amplitude were observed. The compounds were administered sequentially from low to high concentration, followed by a final administration of 100 μM glutamic acid (containing 100 μM glycine). Each test concentration of the compound was applied for at least 20 s, and at least 2 cells (n≥2) were tested for each concentration. • d. Data processing
Data were analyzed using pClamp, GraphPad Prism 8, and Excel software.
The IC50 of the compound was calculated using the GraphPad Prism 8 software by equation fitting as follows:
[formula] • where X is the Log value of the test concentration of the test sample, Y is the inhibition percentage at the corresponding concentration, and Bottom and Top are the minimum and maximum inhibition percentages, respectively.

[3] = target: Sigma1 receptor (Homo sapiens, UniProt Q99720); assay: Sigma receptor affinity assay ([3H]-DTG binding), Sigma1R
Sigma1 receptor, sequence (Q99720 whole entry): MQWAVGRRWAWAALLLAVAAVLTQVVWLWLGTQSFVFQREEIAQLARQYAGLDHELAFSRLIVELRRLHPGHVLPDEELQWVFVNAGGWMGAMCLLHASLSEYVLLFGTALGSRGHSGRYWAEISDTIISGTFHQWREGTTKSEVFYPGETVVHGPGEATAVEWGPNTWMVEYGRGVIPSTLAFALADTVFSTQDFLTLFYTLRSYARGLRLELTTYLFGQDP
Procedure: as §1, §2
The cell membrane solution and isotope solution were prepared with the pre-cooled detection buffer, with the following configuration information: the membrane concentration was 10 μg/well, and the final concentration of isotopic ligand [3H]-DTG was 5 nM. • 5) After the test compound and the positive control were diluted to the working concentration, 1 μL was added to each well of the assay plate. […] […]. The affinity inhibition constant Ki was calculated using the Cheng Prusoff equation:

[4] = target: human DAT (Homo sapiens, UniProt Q01959); assay: DAT transporter inhibitory activity test (neurotransmitter transporter uptake assay kit); type: cell-based; conditions: DAT stably transfected HEK cells; read-out: DAT (IC50)
human DAT, sequence (Q01959 whole entry): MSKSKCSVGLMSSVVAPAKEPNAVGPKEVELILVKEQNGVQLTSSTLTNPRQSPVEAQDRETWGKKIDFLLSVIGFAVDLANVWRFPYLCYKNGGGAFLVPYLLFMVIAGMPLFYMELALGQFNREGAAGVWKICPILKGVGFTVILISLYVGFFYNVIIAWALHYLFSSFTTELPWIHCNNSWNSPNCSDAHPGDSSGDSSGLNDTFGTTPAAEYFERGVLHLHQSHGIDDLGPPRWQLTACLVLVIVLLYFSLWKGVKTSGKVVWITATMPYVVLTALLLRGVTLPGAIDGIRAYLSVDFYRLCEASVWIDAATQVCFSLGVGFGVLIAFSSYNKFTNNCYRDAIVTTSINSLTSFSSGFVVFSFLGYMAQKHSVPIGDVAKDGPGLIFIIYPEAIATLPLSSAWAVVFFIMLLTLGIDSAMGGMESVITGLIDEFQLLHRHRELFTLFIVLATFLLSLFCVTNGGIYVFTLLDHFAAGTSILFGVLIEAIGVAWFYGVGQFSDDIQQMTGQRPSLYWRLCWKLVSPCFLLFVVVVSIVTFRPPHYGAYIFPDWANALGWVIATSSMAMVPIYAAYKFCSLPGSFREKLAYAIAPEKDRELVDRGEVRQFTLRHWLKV

Sigma2 receptor, sequence (Q5BJF2 whole entry, species assumed): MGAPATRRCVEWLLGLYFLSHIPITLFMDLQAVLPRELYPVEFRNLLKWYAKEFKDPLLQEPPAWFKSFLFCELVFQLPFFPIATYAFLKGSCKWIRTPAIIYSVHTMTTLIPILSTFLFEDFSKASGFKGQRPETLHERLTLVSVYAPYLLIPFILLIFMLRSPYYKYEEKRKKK

Compound | IC50 [2] | further results
CN[C@@]1(c2ccccc2)CCc2ncsc2C1 [S-A13] | 2500 nM | Ki [1]: 257 nM
N^4-methyl-4-phenyl-4,5,6,7-tetrahydrobenzothiazole-2,4-diamine [rac-A39] | 12000 nM | 
c1ccc([C@]2(N3CCCC3)CCc3[nH]ncc3C2)cc1 [S-A12] | 180 nM | 
CNC1(c2ccccc2)CCc2sccc2C1 (racemic) [rac-A25, N-methyl-5-phenyl-4,5,6,7-tetrahydrobenzothiophen-5-amine] |  | Ki [3]: 280 nM
c1ccc([C@]2(N3CCCCC3)CCc3[nH]ncc3C2)cc1 [S-A70] | 840 nM | 
c1ccc([C@@]2(N3CCCCC3)CCc3[nH]ncc3C2)cc1 [R-A70] | 16000 nM | IC50 [4]: 8400 nM
